How the values were obtained:
[1] = test system: p21^WAF-1 protein; assay: Induction of p21^WAF-1 protein in MCF-7 cells (SDS-PAGE, immunodetection); assay type: cell-based, human
Description: MCF-7 cells cultured at 37° C. in 5% CO2 atmosphere in D-MEM medium supplemented with 10% foetal calf serum were treated with 2OH3MeOBAPR concentrations range of 0-100 μM. 2OH3MeOBAPR was added into the medium from the 100 mM storage solution in DMSO. Cells were harvested after 12 hours incubation with 2OH3MeOBAPR, centrifuged (1000 rpm, 4° C., 5 min), washed twice by ice-cold PBS and re-centrifuged. These washed cells were then lysed by 1×CSB (loading buffer for SDS-PAGE, i.e. electrophoresis of proteins in polyacrylamide gel containing SDS). Cell lysate proteins were separated by SDS-PAGE and transferred onto a nitrocelulose (NC) membrane. NC membrane was blocked by 5% skimmed milk, 0.1% Tween 20 in PBS. Protein level of p21^WAF-1 and actin (as a loaded protein volume control) were detected immunochemically using commercially available specific monoclonal antibodies anti-p21^WAF-1 (Ab-1, Calbiochem) and anti-Actin (Clone AC-40, Sigma-Aldrich). The primary antibodies bind to target proteins were detected using rabbit secondary peroxidase-labeled antibody (RAM-Px, DAKO), followed by chemiluminiscence (ECL, Amersham-Pharmacia).
MCF-7 cells were incubated in presence of 1 μM 2OH3MeOBAPR. Treated cells were harvested and lysed after various time periods of 2OH3MeOBAPR treatment. […]

[2] = test system: HL-60 cells; assay: Induction of apoptosis in HL-60 cells (nuclear morphology, DNA fragmentation); assay type: cell-based, human; conditions: 24 h (FIG. 5-7)
Description: (§1) Cell culture. A suspension of human promyelocytic HL-60 cells was cultured in RPMI-1640 medium supplemented with a 10% calf foetal serum and antibiotics in 5% CO2 atmosphere at 37° C. Cells were maintained at density from 1×10^5 to 6×10^5 cells per ml. HL-60 cells were obtained from ECACC.
Morphological analysis of cell nuclei. Cells were harvested, washed in PBS, and fixed in an ice-cold methanol+acetic acid (3:1) fixation mixture. Aliquots of cells were spread on glass slides and stained with Hoechst 33342 (2 μg/ml) in PBS. The morphology of cell nuclei was examined by a fluorescence microscope (Mlejnek and Kuglik 2000).
DNA fragmentation assay. Aliquots of cells were washed in PBS and lysed by addition of DNA lysis buffer (50 mM Tris/HCl, pH=8.0, 10 mM EDTA, 0.5% sodium lauroyl sarcosine, and 0.5 mg/ml proteinase K) at 37° C. overnight. Samples were treated further with DNase-free RNase-A (0.2 mg/ml) at 37° C. for 3 h. The resulting extracts were loaded onto 1.8% agarose gel containing ethidium bromide (Mlejnek and Kuglik 2000).

[3] = test system: HL-60 cells; assay: Cell cycle analysis (flow cytometry); assay type: cell-based, human; conditions: 5 μM, 24 h (FIG. 8)
Description: as §1
Cell cycle analysis. Cells were washed in PBS and then fixed in 70% ethanol at −20° C. over night. Fixed cells are washed in PBS and stained in PBS containing PI (20 μg/ml) and RNase A (100 μg/ml) for 30 min at 37° C. prior to FACScan analysis (Mlejnek and Kolman 1999).

[4] = test system: caspase-9; assay: Caspase protease activity measurement in cell extracts, caspase-9; assay type: cell-based, human; conditions: 20 μM, substrate Ac-LEHD-AFC (FIG. 9)
Description: Caspase protease activity measurement. Cells were washed in PBS and then extracted in buffer [50 mM HEPES, pH 7.4, 1 mM EDTA, 0.1% Chaps, 5 mM DTT, and proteinase inhibitor cocktail (Roche)] on ice. Cell extracts were centrifuged for 30 min at 30 000×g at 4° C. Clarified extract were immediately analysed or stored at −80° C. […] The assay was carried out in 1 ml tubes, aliquots of lysates (200-300 μg of total protein) were mixed with 1 ml of buffer (25 mM PIPES/KOH, 2 mM EGTA, 5 mM DTT, and 0.1% Chaps, pH 7.3) and reactions were initiated by adding 50 μM substrate. Samples were incubated for 1 hour at 30° C. before the fluorescence was determined. Excitation and emission wavelengths were the same for both substrates (380 nm and 445 nm, respectively).

[5] = test system: Rosa hybrida ‘Pailin’; assay: Early shoot senescence inhibition of tissue cultured roses; assay type: in vivo; conditions: 10 μM in medium
Description: Rosa hybrida ‘Pailin’ (a cut rose) was cultured in 350 ml vessels with a screw on polycarbonate lid. Each culture vessel contained 100 ml autoclaved medium (120° C., 20 min). The cultures were maintained at 23±2° C. under a 16 h photoperiod at […] m^−2 s^−1 PAR. The basal medium (MBR) contained Murashige and Skoog (1962) macroelements, microelements and vitamins, 36.7 mg/l NaFeEDTA, 50 mg/l NaFeEDDHA, […], 30 g/l sucrose, 100 mg/l glycine, 50 mg/l calcium pantothenate, 100 mg/l L-glutamine and 7 g/l agar-agar. This medium was supplemented with 10 μM of the tested cytokinin. New cytokinins were filter sterilised and added after autoclaving the medium in the vessels. 6-Benzylaminopurine (BAP) was used as a standard compound; the control medium didn't contain any cytokinin. After a culture period of 6 weeks, scoring senescence symptoms was started.

Structure (SMILES)	p21^WAF-1 protein induction in dependence on duration of incubation ([1]; 1 μM, 6-24 hours after addition)	p21^WAF-1 protein induction in dependence on concentration ([1]; 12 hours, 0-100 μM, effective at units of μmol/liter)	induction of HL-60 cell death / apoptosis [2]	effect on cell cycle [3]	activation of caspase-9 [4]	senescence / dying of rose explants (in words) ([5]; listed as 3MeOBAPR)	senescence / dying of rose explants (in words) ([5]; listed as mMeOBAPR)
COc1cccc(CNc2ncnc3c2ncn3[C@@H]2O[C@H](CO)[C@@H](O)[C@H]2O)c1O [2-hydroxy-3-methoxybenzylamino, 6-(2-hydroxy-3-methoxybenzylamino)purine riboside]	Efficient p21^WAF-1 protein induction is achieved	Efficient p21^WAF-1 protein induction is achieved	induce HL-60 cell death, with typical morphological and biochemical characteristics of apoptosis	does not inhibit cell cycle in certain control point(s), but rather unspecifically	activate caspase proteases, especially caspase-9 and -3	–	–
COc1cccc(CNc2ncnc3c2ncn3[C@@H]2O[C@H](CO)[C@@H](O)[C@H]2O)c1 [3-methoxybenzylamino, 6-(3-methoxybenzylamino)purine riboside]	–	–	–	–	–	Even after 121 days almost all plants were still alive	vigorous Rosa plantlet after 121 days of cultivation

— patent US8119614B2, “Substitution derivatives of N6-benzyladenosine, methods of their preparation, their use for preparation of drugs, cosmetic preparations and growth regulators, pharmaceutical preparations, cosmetic preparations and growth regulators containing these compounds” (Ustav Experimentalni Botaniky Akademie Ved Ceske Republiky, priority 2002, dated 2012)
